Tested on: Staphylococcus aureus
Assay: Agar diffusion disc test (zone of inhibition)
Assay type: cell-based
Settings: positive control, 100 μg/mL (FIG. 2b)
Description: Extraction of fermentates. Screening of the antimicrobial activity of NP extracts produced via liquid-liquid extraction with various organic solvents was performed. The tested organic solvents (i.e., ethyl acetate, chloroform, diethyl ether, dichloromethane, tetrahydrofuran, toluene, EMW (mixture of ethyl acetate:methanol:water), CEF (mixture of chloroform:ethyl acetate:formic acid), and BEA (mixture of benzene:ethanol:ammonia hydroxide)) are described in Table 2. 20 mL of NP1 or NP2 was reacted with 20 mL of an organic solvent in 50 mL conical tubes and incubated overnight at 25±2° C. with shaking at 150 rpm. The mixtures were centrifuged at 5000 g and the organic layer was transferred to a new 50 mL conical tube. The extracts were evaporated until dry under gentle airflow. Then, the extracts were reconstituted in 1 mL of methanol and filtered with a sterile 0.45 μm filtration unit. The methanol solution was tested for antimicrobial activity.

`CC1(C)S[C@@H]2[C@H](NC(=O)[C@H](N)c3ccccc3)C(=O)N2[C@H]1C(=O)O` [ampicillin] showed a zone of inhibition at 100 µg/mL of ~30 mm.

Source: patent publication US20250024846A1, “DEVELOPMENT OF FOOD-GRADE FUNGAL FERMENTATES WITH ANTIMICROBIAL ACTIVITY AND THE USE THEREOF” (Wisconsin Alumni Research Foundation, priority 2021, published 2025)
